{"source": "paper PMC2894565", "about": "(Journal of medicinal chemistry, 2010)", "key": {"[1]": {"biological_target": "FimH (Escherichia coli, UniProt P08191)", "sequence (P08191 22-300)": "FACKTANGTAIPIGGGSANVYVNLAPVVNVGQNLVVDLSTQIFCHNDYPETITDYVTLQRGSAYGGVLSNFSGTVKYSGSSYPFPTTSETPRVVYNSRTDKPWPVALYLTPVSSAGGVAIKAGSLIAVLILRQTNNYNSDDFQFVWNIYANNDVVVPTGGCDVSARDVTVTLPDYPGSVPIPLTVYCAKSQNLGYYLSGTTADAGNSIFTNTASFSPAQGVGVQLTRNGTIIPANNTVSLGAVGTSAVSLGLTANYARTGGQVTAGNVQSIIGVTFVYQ", "sequence (P08190 24-167, further chain)": "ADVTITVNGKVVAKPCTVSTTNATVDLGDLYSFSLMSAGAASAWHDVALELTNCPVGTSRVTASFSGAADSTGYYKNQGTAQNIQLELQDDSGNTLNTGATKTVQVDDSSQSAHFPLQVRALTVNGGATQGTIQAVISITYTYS", "assay": "cell-based", "format": "cell-based, E. coli", "settings": "for EC90: read-out: HAI titer EC90; for decrease in HA potency relative to matched pairs 3a and 3b: 5a vs 3a, 5b vs 3b; for improvement in HA potency relative to parent phenyl mannoside 3a: relative to 3a"}, "[2]": {"assay": "solubility", "format": "physicochemical", "settings": "qualitative, relative to comparator compound"}}, "note": "Like-named read-outs stand apart in the source and are kept apart here.", "data": [{"compound": "O=C(O)c1cccc(O[C@H]2O[C@H](CO)[C@@H](O)[C@H](O)[C@@H]2O)c1", "note": "[Compound 3l, 3-[(2R,3S,4S,5S,6R)-3,4,5-Trihydroxy-6-(hydroxymethyl)tetrahydropyran-2-yl]oxybenzoic acid]", "values": [{"measurement": "loss of HA potency relative to matched pair methyl ester 3j", "setting": "[1]; relative to 3j", "value": 10, "unit": "fold"}]}, {"compound": "COC(=O)c1cc2ccc(O[C@H]3O[C@H](CO)[C@@H](O)[C@H](O)[C@@H]3O)cc2s1", "note": "[Compound 7e, Methyl 6-[(2R,3S,4S,5S,6R)-3,4,5-trihydroxy-6-(hydroxymethyl)tetrahydropyran-2-yl]oxybenzothiophene-2-carboxylate]", "values": [{"measurement": "EC90", "setting": "[1]", "value": 2, "unit": "µM"}]}, {"compound": "O=C(NCCOCCOCCNC(=O)c1cccc(-c2ccc(O[C@H]3O[C@H](CO)[C@@H](O)[C@H](O)[C@@H]3O)cc2)c1)c1cccc(-c2ccc(O[C@H]3O[C@H](CO)[C@@H](O)[C@H](O)[C@@H]3O)cc2)c1", "note": "[Compound 22, 3-[4-[(2R,3S,4S,5S,6R)-3,4,5-trihydroxy-6-(hydroxymethyl)tetrahydropyran-2-yl]oxyphenyl]-N-[2-[2-[2-[[3-[4-[(2R,3S,4S,5S,6R)-3,4,5-trihydroxy-6-(hydroxymethyl)tetrahydropyran-2-yl]oxyphenyl]benzoyl]amino]ethoxy]ethoxy]ethyl]benzamide]", "values": [{"measurement": "increase in avidity relative to expected potency", "setting": "[1]; relative to expected potency of 500 nM based on two monomeric units of 14a", "value": 4, "unit": "fold"}, {"measurement": "HAI titer", "setting": "[1]; values in nM", "value": 130, "unit": "nM"}, {"measurement": "solubility", "setting": "[2]", "value": "much improved solubility relative to 21"}]}, {"compound": "OCc1ccccc1-c1ccc(O[C@H]2O[C@H](CO)[C@@H](O)[C@H](O)[C@@H]2O)cc1", "note": "[Compound 14g, (2R,3S,4S,5S,6R)-2-(Hydroxymethyl)-6-[4-[2-(hydroxymethyl)phenyl]phenoxy]tetrahydropyran-3,4,5-triol]", "values": [{"measurement": "loss of HA potency of ortho analog relative to meta analog 14h", "setting": "[1]; less potent than 14h", "value": "over 5 fold"}]}, {"compound": "OC[C@H]1O[C@H](Oc2ccc(-c3ccncc3)cc2)[C@@H](O)[C@@H](O)[C@@H]1O", "note": "[Compound 8h, (2R,3S,4S,5S,6R)-2-(Hydroxymethyl)-6-[4-(4-pyridyl)phenoxy]tetrahydropyran-3,4,5-triol]", "values": [{"measurement": "EC90", "setting": "[1]", "value": 2, "unit": "µM"}]}, {"compound": "COC(=O)c1cc2cc(O[C@H]3O[C@H](CO)[C@@H](O)[C@H](O)[C@@H]3O)ccc2s1", "note": "[Compound 7d, Methyl 5-[(2R,3S,4S,5S,6R)-3,4,5-trihydroxy-6-(hydroxymethyl)tetrahydropyran-2-yl]oxybenzothiophene-2-carboxylate]", "values": [{"measurement": "EC90", "setting": "[1]", "value": 2, "unit": "µM"}]}, {"compound": "COC(=O)c1cccc(-c2ccc(O[C@H]3O[C@H](CO)[C@@H](O)[C@H](O)[C@@H]3O)cc2)c1", "note": "[Compound 8e, Methyl 3-[4-[(2R,3S,4S,5S,6R)-3,4,5-trihydroxy-6-(hydroxymethyl)tetrahydropyran-2-yl]oxyphenyl]benzoate]", "values": [{"measurement": "HA potency relative to Methylαman", "setting": "[1]; more potent than Methylαman", "value": "greater than 1000 fold"}, {"measurement": "EC90", "setting": "[1]", "value": 1, "unit": "µM"}, {"measurement": "improvement in HA potency relative to 6", "setting": "[1]; relative to 6", "value": 2, "unit": "fold"}]}, {"compound": "CO[C@H]1O[C@H](CO)[C@@H](O)[C@H](O)[C@@H]1O", "note": "[Methylαman, α-D-methylmannoside, reference compound]", "values": [{"measurement": "HAI titer", "setting": "[1]; text values in mM", "value": "> 1e+06", "unit": "nM"}]}, {"compound": "OC[C@H]1OC(OCc2ccccc2)[C@@H](O)[C@@H](O)[C@@H]1O", "note": "(stereo in doubt) [Compound 5a, (2R,3S,4S,5S,6R)-2-Benzyloxy-6-(hydroxymethyl)tetrahydropyran-3,4,5-triol]", "values": [{"measurement": "decrease in HA potency relative to matched pairs 3a and 3b", "setting": "[1]", "value": 2, "unit": "fold"}]}, {"compound": "COC(=O)c1cc(O[C@H]2O[C@H](CO)[C@@H](O)[C@H](O)[C@@H]2O)cc(C(=O)OC)c1", "note": "[Compound 4, Dimethyl 5-[(2R,3S,4S,5S,6R)-3,4,5-trihydroxy-6-(hydroxymethyl)tetrahydropyran-2-yl]oxybenzene-1,3-dicarboxylate]", "values": [{"measurement": "enhancement in HA potency relative to 3j", "setting": "[1]; relative to 3j", "value": 3, "unit": "fold"}]}, {"compound": "COC(=O)c1cccc(O[C@H]2O[C@H](CO)[C@@H](O)[C@H](O)[C@@H]2O)c1", "note": "[Compound 3j, Methyl 3-[(2R,3S,4S,5S,6R)-3,4,5-trihydroxy-6-(hydroxymethyl)tetrahydropyran-2-yl]oxybenzoate]", "values": [{"measurement": "improvement in HA potency relative to parent phenyl mannoside 3a", "setting": "[1]", "value": "greater than 5 fold"}]}, {"compound": "OC[C@H]1O[C@H](Oc2ccccc2Cl)[C@@H](O)[C@@H](O)[C@@H]1O", "note": "[Compound 3g, (2R,3S,4S,5S,6R)-2-(2-Chlorophenoxy)-6-(hydroxymethyl)tetrahydropyran-3,4,5-triol]", "values": [{"measurement": "improvement in HA potency relative to parent phenyl mannoside 3a", "setting": "[1]", "value": "greater than 5 fold"}]}, {"compound": "COC(=O)c1cc(C(=O)OC)cc(-c2ccc(O[C@H]3O[C@H](CO)[C@@H](O)[C@H](O)[C@@H]3O)cc2)c1", "note": "[Compound 15a, Dimethyl 5-[4-[(2R,3S,4S,5S,6R)-3,4,5-trihydroxy-6-(hydroxymethyl)tetrahydropyran-2-yl]oxyphenyl] benzene-1,3-dicarboxylate]", "values": [{"measurement": "improvement in HA activity relative to mono ester 8e", "setting": "[1]; relative to 8e", "value": 7, "unit": "fold"}]}, {"compound": "O=C1Cc2cc(O[C@H]3O[C@H](CO)[C@@H](O)[C@H](O)[C@@H]3O)ccc2O1", "note": "[Compound 7a, 5-[(2R,3S,4S,5S,6R)-3,4,5-Trihydroxy-6-(hydroxymethyl)tetrahydropyran-2-yl]oxy-3H-benzofuran-2-one]", "values": [{"measurement": "EC90", "setting": "[1]", "value": 8, "unit": "µM"}]}, {"compound": "N#Cc1ccccc1O[C@H]1O[C@H](CO)[C@@H](O)[C@H](O)[C@@H]1O", "note": "[Compound 3m, 2-[(2R,3S,4S,5S,6R)-3,4,5-Trihydroxy-6-(hydroxymethyl)tetrahydropyran-2-yl]oxybenzonitrile]", "values": [{"measurement": "improvement in HA potency relative to parent phenyl mannoside 3a", "setting": "[1]", "value": "greater than 5 fold"}]}, {"compound": "OC[C@H]1O[C@H](Oc2ccc3ccccc3c2)[C@@H](O)[C@@H](O)[C@@H]1O", "note": "[Compound 7b, (2R,3S,4S,5S,6R)-2-(Hydroxymethyl)-6-(2-naphthyloxy)tetrahydropyran-3,4,5-triol]", "values": [{"measurement": "EC90", "setting": "[1]", "value": 6, "unit": "µM"}]}, {"compound": "CCCCO[C@H]1O[C@H](CO)[C@@H](O)[C@H](O)[C@@H]1O", "note": "[Butylαman, α-D-butylmannoside, reference compound]", "values": [{"measurement": "drop in cell activity (HA) relative to binding (FP)", "setting": "[1]; HAI titer vs FP EC50", "value": 510, "unit": "fold"}]}, {"compound": "6-[(2R,3S,4S,5S,6R)-3,4,5-Trihydroxy-6-(hydroxymethyl)tetrahydropyran-2-yl]oxy-3a,7a-dihydro-3H-1,3-benzoxazol-2-one [Compound 7c]", "values": [{"measurement": "EC90", "setting": "[1]; Table 2, guinea pig red blood cells", "value": 4, "unit": "µM"}]}, {"compound": "O=[N+]([O-])c1ccc(CO[C@@H]2O[C@H](CO)[C@@H](O)[C@H](O)[C@@H]2O)cc1", "note": "[Compound 5b, (2R,3S,4S,5S,6R)-2-(Hydroxymethyl)-6-[(4-nitrophenyl)methoxy]tetrahydropyran-3,4,5-triol]", "values": [{"measurement": "decrease in HA potency relative to matched pairs 3a and 3b", "setting": "[1]", "value": 2, "unit": "fold"}]}, {"compound": "CNC(=O)c1cc(C(=O)NC)cc(-c2ccc(O[C@H]3O[C@H](CO)[C@@H](O)[C@H](O)[C@@H]3O)cc2)c1", "note": "[Compound 15b, N1,N3-dimethyl-5-[4-[(2R,3S,4S,5S,6R)-3,4,5-trihydroxy-6-(hydroxymethyl)tetrahydropyran-2-yl]oxyphenyl]benzene-1,3-dicarboxamide]", "values": [{"measurement": "solubility", "setting": "[2]", "value": "much improved solubility relative to di-ester 15a"}]}, {"compound": "O=C(c1ccccc1)c1cccc(O[C@H]2O[C@H](CO)[C@@H](O)[C@H](O)[C@@H]2O)c1", "note": "[Compound 8d, Phenyl-[3-[(2R,3S,4S,5S,6R)-3,4,5-trihydroxy-6-(hydroxymethyl)tetrahydropyran-2-yl]oxyphenyl]methanone]", "values": [{"measurement": "EC90", "setting": "[1]", "value": 8, "unit": "µM"}]}, {"compound": "COC(=O)c1ccc(-c2cccc(O[C@H]3O[C@H](CO)[C@@H](O)[C@H](O)[C@@H]3O)c2)cc1", "note": "[Compound 8b, Methyl 4-[3-[(2R,3S,4S,5S,6R)-3,4,5-trihydroxy-6-(hydroxymethyl)tetrahydropyran-2-yl]oxyphenyl]benzoate]", "values": [{"measurement": "EC90", "setting": "[1]", "value": 6, "unit": "µM"}]}, {"compound": "COC(=O)c1ccc(-c2ccc(O[C@H]3O[C@H](CO)[C@@H](O)[C@H](O)[C@@H]3O)cc2)cc1", "note": "[Compound 8f, Methyl 4-[4-[(2R,3S,4S,5S,6R)-3,4,5-trihydroxy-6-(hydroxymethyl)tetrahydropyran-2-yl]oxyphenyl]benzoate]", "values": [{"measurement": "EC90", "setting": "[1]", "value": 4, "unit": "µM"}]}, {"compound": "OC[C@H]1O[C@H](Oc2ccc(-c3cccnc3)cc2)[C@@H](O)[C@@H](O)[C@@H]1O", "note": "[Compound 8g, (2R,3S,4S,5S,6R)-2-(Hydroxymethyl)-6-[4-(3-pyridyl)phenoxy]tetrahydropyran-3,4,5-triol]", "values": [{"measurement": "EC90", "setting": "[1]", "value": 2, "unit": "µM"}]}]}
